The values that follow come from US20190029951A1, “EXTENDED RELEASE FORMULATIONS OF VELIPARIB FOR THE TREATMENT OF CANCER” (AbbVie Inc., priority 2016, published 2019).

Format in all cases: in vivo, human
For one experiment, the system named is ovarian cancer. In words: Best tumor response in patients with ovarian cancer. Conditions: patients with OC, 8/44. From the text:
(§1) The term “efficacy” as used herein refers to an inhibitory effect on tumor growth, which can be manifested as slowing, retarding, arresting or even reversing (i.e., shrinking) growth of the tumor. In some embodiments, the effect on tumor growth is associated with suppression by a PARP inhibitory compound, for example Veliparib. In clinical sittings, efficacy can be measured by one skilled in the art and by a number of efficacy endpoints, for example, overall survival (OS), progression free survival (PPS), time to progression (TTP), time to treatment failure (TTF), event-free survival (EFS), time to next treatment (TINT), objective response rate (ORR), duration of response (DoR), and/or response rate, for example, partial response (PR) or complete response (CR). The term “partial response” or “PR” as used herein, means a partial response of the target lesion, indicated by at least a 30% decrease in the sum of diameters of target lesions, taking as reference the baseline sum diameters.
(§2) Eligible patients had metastatic BRCA+ cancer, BRCA± high-grade serious ovarian/primary peritoneal/fallopian tube cancer (OC), (part 1/2), or BRCA+ breast cancer (BC), or OC (part 3).
(§3) Best tumor responses were compared between patients from Part 1 who received IR-v as the primary treatment and patients in Part 2 and Part 3 of the study who received ER-v formulation C. […]

In another experiment the test system is breast cancer. In words: Best tumor response in patients with breast cancer. Conditions: patients with BC, 6/16.
Description: as §1, §2, §3

The test system of experiment [1] is tumor growth (sum of the longest diameter for all target lesions). In words: Exposure-response tumor growth inhibition model (NONMEM nonlinear mixed-effects). Conditions: final tumor growth inhibition model. The text has this: Fifty-four subjects (39 with ovarian, fallopian tube, or peritoneal cancers, 14 with breast cancer, and 1 with prostate cancer) were included in an exposure-response analysis using nonlinear mixed-effects modeling approach with NONMEM software (version 7.3.0) (Table 6).
Veliparib pharmacokinetics (PK) was described with a one-compartment model with first-order elimination process (kel) (FIG. 4). For the IR formulation, absorption was modeled as a first-order process (ka) (Equations 1a and 1b). For the ER formulation, the absorption was modeled as a zero-order process (Dose/Duration) (Equations 2a and 2b).
Subsequently, the relationship between veliparib PK exposure and longitudinal tumor growth inhibition was analyzed. The time course of tumor growth inhibition was modeled using an exponential tumor growth model represented by a single tumor compartment linked to veliparib central compartment with linear inhibitory effect of veliparib on tumor growth (see FIG. 4 and Equation 3). The possible measurement error at the baseline was accounted for by allowing individual deviations from the observed baseline as between-subject variability. Inter-individual variability was incorporated on the slope and estimated baseline using exponential function and the residual variability was characterized using additive error. […]

As to `C[C@]1(c2nc3c(C(N)=O)cccc3[nH]2)CCCN1` [veliparib, 2-[(2R)-2-methylpyrrolidin-2-yl]-1H-benzimidazole-4-carboxamide], the “Confirmed and unconfirmed responses” value in the experiment on ovarian cancer was 18%; in the experiment on breast cancer, 38%. Besides, the “BRCA effect on Slope (i.e., ratio of Slope for BRCA-mut to Slope for BRCA-wt), Population Estimate” value in experiment [1] is on record as 1.72.
